{"source": "patent US6964975B2", "about": "“Isoxazole and thiazole compounds and use thereof as medicine” (Kirin Beer Kabushiki Kaisha, priority 2000, dated 2005)"}
{"target": "T1, human EDG-2 (Homo sapiens, UniProt Q92633)", "T1 construct": "cDNA of the cloned human EDG-2 was introduced into pEFneo, which is an animal expression vector; expressed in transfected cells; host or cells: HepG2", "T1 sequence (Q92633 whole entry)": "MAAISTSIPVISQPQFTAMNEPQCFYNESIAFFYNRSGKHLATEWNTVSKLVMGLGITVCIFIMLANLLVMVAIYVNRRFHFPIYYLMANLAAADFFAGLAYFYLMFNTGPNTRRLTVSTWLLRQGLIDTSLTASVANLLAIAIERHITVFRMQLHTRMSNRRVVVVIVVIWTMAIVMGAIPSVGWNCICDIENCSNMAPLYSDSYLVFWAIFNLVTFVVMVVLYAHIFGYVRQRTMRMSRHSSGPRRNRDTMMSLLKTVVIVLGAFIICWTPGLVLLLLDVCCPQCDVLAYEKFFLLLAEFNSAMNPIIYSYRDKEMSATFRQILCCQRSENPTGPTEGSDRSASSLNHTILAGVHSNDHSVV", "assay": "Inhibitory activity on LPA-induced elevation of intracellular Ca2+ level", "assay_type": "cell-based", "settings": "50% inhibition of elevation of intracellular Ca2+ level by LPA, human EDG-2/HepG2 cells, fura-2", "source_text": "The human EDG-2 expression plasmid was introduced into HepG2 cells by electroporation. After the introduction, culturing was continued while exchanging selective media every 3 to 4 days, thereby obtaining an expressed colony. Regarding these cells, Ca-influx and cell-proliferation by LPA, level of [^3H] LPA binding and the like were inspected to select a cell line which highly expresses human EDG-2 (human EDG-2/HepG2).\nHuman EDG-2/HepG2 cells were washed and then suspended in 0.1% BSA (bovine serum albumin)-containing HEPES buffer. A fluorescent indicator, fura-2/AM (Wako Pure Chemical Industries, Ltd.), was added, and the mixture was shaken at room temperature for 45 minutes so that the indicator is included in the cell. Cells were washed again and then suspended in 0.1% BSA-containing HEPES buffer, and intracellular Ca^2+ level was assayed using FDSS2000 (Hamamatsu Photonics). […] Each test compound was added to the cell suspension followed by the addition of LPA, thereby examining the inhibitory activity of the test compound on the function of LPA for elevating the intracellular Ca level. […] The lower the IC50 value, the higher the antagonistic activity on the LPA receptor.", "units": {"IC50": "µM"}}
{"smiles": "Cc1noc(-c2cccc([N+](=O)[O-])c2)c1NC(=O)OC(C)c1ccccc1", "note": "(stereo not shown) [Compound 58, 1-Phenylethyl N-[3-methyl-5-(3-nitrophenyl)-4-isoxazolyl]carbamate]", "IC50": 10}
{"smiles": "Cc1noc(-c2cccc([N+](=O)[O-])c2)c1NC(=O)OC(C)c1ccccc1Cl", "note": "(stereo not shown) [Compound 59, 1-(2-Chlorophenyl)ethyl N-[3-methyl-5-(3-nitrophenyl)-4-isoxazolyl]carbamate]", "IC50": "3 to 10"}
{"smiles": "Cc1noc(-c2ccc(F)cc2F)c1NC(=O)OC(C)c1ccccc1Cl", "note": "(stereo not shown) [Compound 60, 1-(2-Chlorophenyl)ethyl N-[5-(2,4-difluorophenyl)-3-methyl-4-isoxazolyl]carbamate]", "IC50": "1 to 3"}
{"smiles": "Cc1noc(-c2ccncc2)c1NC(=O)OC(C)c1ccccc1", "note": "(stereo not shown) [Compound 61, 1-Phenylethyl N-[3-methyl-5-(4-pyridyl)-4-isoxazolyl]carbamate]", "IC50": "3 to 10"}
{"smiles": "Cc1noc(-c2ccc(Cl)nc2)c1NC(=O)OC(C)c1ccccc1Cl", "note": "(stereo not shown) [Compound 63, 1-(2-Chlorophenyl)ethyl N-[5-(6-chloro-3-pyridyl)-3-methyl-4-isoxazolyl]carbamate]", "IC50": 30}
{"smiles": "CCCCc1ccc(-c2onc(C)c2NC(=O)OC(C)c2ccccc2)cc1", "note": "(stereo not shown) [Compound 64, 1-Phenylethyl N-[5-(4-butylphenyl)-3-methyl-4-isoxazolyl]carbamate]", "IC50": "10 to 30"}
{"smiles": "CCCCc1ccc(-c2onc(C)c2NC(=O)OC(C)c2ccccc2Cl)cc1", "note": "(stereo not shown) [Compound 65, 1-(2-Chlorophenyl)ethyl N-[5-(4-butylphenyl)-3-methyl-4-isoxazolyl]carbamate]", "IC50": "10 to 30"}
{"smiles": "Cc1ccsc1-c1onc(C)c1NC(=O)OC(C)c1ccccc1", "note": "(stereo not shown) [Compound 66, 1-Phenylethyl N-[3-methyl-5-(3-methyl-2-thienyl)-4-isoxazolyl]carbamate]", "IC50": 10}
{"smiles": "Cc1noc(-c2ccoc2)c1NC(=O)OC(C)c1ccccc1Cl", "note": "(stereo not shown) [Compound 68, 1-(2-Chlorophenyl)ethyl N-[5-(3-furyl)-3-methyl-4-isoxazolyl]carbamate]", "IC50": "3 to 10"}
{"smiles": "Cc1ccc(-c2onc(C)c2NC(=O)OC(C)c2ccccc2Cl)s1", "note": "(stereo not shown) [Compound 69, 1-(2-Chlorophenyl)ethyl N-[3-methyl-5-(5-methyl-2-thienyl)-4-isoxazolyl]carbamate]", "IC50": "3 to 10"}
{"smiles": "Cc1noc(-c2cccc(CCl)c2)c1NC(=O)OC(C)c1ccccc1Cl", "note": "(stereo not shown) [Compound 70, 1-(2-Chlorophenyl)ethyl N-[5-[3-(chloromethyl)phenyl]-3-methyl-4-isoxazolyl]carbamate]", "IC50": "1 to 3"}
{"smiles": "Cc1noc(-c2c(-c3ccccc3)noc2C)c1NC(=O)OC(C)c1ccccc1Cl", "note": "(stereo not shown) [Compound 72, 1-(2-Chlorophenyl)ethyl N-[5-(3-phenyl-5-methyl-4-isoxazolyl)-3-methyl-4-isoxazolyl]carbamate]", "IC50": "10 to 30"}
{"smiles": "Cc1noc(-c2ccc(Br)o2)c1NC(=O)OC(C)c1ccccc1Cl", "note": "(stereo not shown) [Compound 73, 1-(2-Chlorophenyl)ethyl N-[5-(5-bromo-2-furyl)-3-methyl-4-isoxazolyl]carbamate]", "IC50": "1 to 3"}
{"smiles": "Cc1noc(-c2ccc(CCl)cc2)c1NC(=O)OC(C)c1ccccc1Cl", "note": "(stereo not shown) [Compound 74, 1-(2-Chlorophenyl)ethyl N-[5-[4-(chloromethyl)phenyl]-3-methyl-4-isoxazolyl]carbamate]", "IC50": "1 to 3"}
{"smiles": "Cc1noc(-c2ccsc2)c1NC(=O)OC(C)c1ccccc1Cl", "note": "(stereo not shown) [Compound 75, 1-(2-Chlorophenyl)ethyl N-[3-methyl-5-(3-thienyl)-4-isoxazolyl]carbamate]", "IC50": "3 to 10"}
{"smiles": "CCc1noc(-c2ccccc2)c1NC(=O)OC(C)c1ccccc1Cl", "note": "(stereo not shown) [Compound 76, 1-(2-Chlorophenyl)ethyl N-(3-ethyl-5-phenyl-4-isoxazolyl)carbamate]", "IC50": "1 to 3"}
{"smiles": "CCc1noc(-c2ccc(C#N)cc2)c1NC(=O)OC(C)c1ccccc1Cl", "note": "(stereo not shown) [Compound 77, 1-(2-Chlorophenyl)ethyl N-[5-(4-cyanophenyl)-3-ethyl-4-isoxazolyl]carbamate]", "IC50": "1 to 3"}
{"smiles": "COCc1noc(-c2ccccc2)c1NC(=O)OC(C)c1ccccc1Cl", "note": "(stereo not shown) [Compound 78, 1-(2-Chlorophenyl)ethyl N-[3-(methoxymethyl)-5-phenyl-4-isoxazolyl]carbamate]", "IC50": 30}
{"smiles": "Cc1noc(-c2ccc(COc3ccccc3)cc2)c1NC(=O)OC(C)c1ccccc1Cl", "note": "(stereo not shown) [Compound 79, 1-(2-Chlorophenyl)ethyl N-[3-methyl-5-[4-(phenoxymethyl)phenyl]-4-isoxazolyl]carbamate]", "IC50": 3}
{"smiles": "Cc1onc(-c2ccccc2)c1NC(=O)OC(c1ccccc1)C(F)(F)F", "note": "(stereo not shown) [Compound 80, 2,2,2-Trifluoro-1-phenylethyl N-(5-methyl-3-phenyl-4-isoxazolyl)carbamate]", "IC50": "1 to 3"}
{"smiles": "C=CC(OC(=O)Nc1c(-c2ccccc2)noc1C)c1ccccc1", "note": "(stereo not shown) [Compound 81, 1-Phenylallyl N-(5-methyl-3-phenyl-4-isoxazolyl)carbamate]", "IC50": "30 to 100"}
{"smiles": "Cc1noc(-c2ccc(COCc3ccc(F)cc3)cc2)c1NC(=O)OC(C)c1ccccc1Cl", "note": "(stereo not shown) [Compound 82, 1-(2-Chlorophenyl)ethyl N-[5-(4-[[(4-fluorobenzyl)oxy]methyl]phenyl)-3-methyl-4-isoxazolyl]carbamate]", "IC50": "10 to 30"}
{"smiles": "Cc1noc(-c2ccc(COCc3c(F)cccc3F)cc2)c1NC(=O)OC(C)c1ccccc1Cl", "note": "(stereo not shown) [Compound 83, 1-(2-Chlorophenyl)ethyl N-[5-(4-[[(2,6-difluorobenzyl)oxy]methyl]phenyl)-3-methyl-4-isoxazolyl]carbamate]", "IC50": 10}
{"smiles": "Cc1noc(-c2ccc(COCc3ccco3)cc2)c1NC(=O)OC(C)c1ccccc1Cl", "note": "(stereo not shown) [Compound 84, 1-(2-Chlorophenyl)ethyl N-(5-[4-[(2-furylmethoxy)methyl]phenyl]-3-methyl-4-isoxazolyl)carbamate]", "IC50": "3 to 10"}
{"smiles": "Cc1noc(-c2ccc(COCc3ccoc3)cc2)c1NC(=O)OC(C)c1ccccc1Cl", "note": "(stereo not shown) [Compound 85, 1-(2-Chlorophenyl)ethyl N-(5-[4-[(3-furylmethoxy)methyl]phenyl]-3-methyl-4-isoxazolyl)carbamate]", "IC50": "3 to 10"}
{"smiles": "Cc1noc(-c2ccc(C#N)cc2)c1NC(=O)OC(c1ccccc1)C(F)(F)F", "note": "(stereo not shown) [Compound 86, 2,2,2-Trifluoro-1-phenylethyl N-[5-(4-cyanophenyl)-3-methyl-4-isoxazolyl]carbamate]", "IC50": "1 to 3"}
{"smiles": "COCc1ccc(-c2onc(C)c2NC(=O)OC(C)c2ccccc2Cl)cc1", "note": "(stereo not shown) [Compound 87, 1-(2-Chlorophenyl)ethyl N-[5-[4-(methoxymethyl)phenyl]-3-methyl-4-isoxazolyl]carbamate]", "IC50": 3}
{"smiles": "Cc1noc(-c2ccc(CN3CCOCC3)cc2)c1NC(=O)OC(C)c1ccccc1Cl", "note": "(stereo not shown) [Compound 88, 1-(2-Chlorophenyl)ethyl N-[3-methyl-5-[4-(morpholinomethyl)phenyl]-4-isoxazolyl]carbamate]", "IC50": "3 to 10"}
{"smiles": "Cc1noc(-c2ccc(CN3CC(C)OC(C)C3)cc2)c1NC(=O)OC(C)c1ccccc1Cl", "note": "(stereo not shown) [Compound 89, 1-(2-Chlorophenyl)ethyl N-(5-[4-[(2,6-dimethylmorpholino)methyl]phenyl]-3-methyl-4-isoxazolyl)carbamate]", "IC50": "10 to 30"}
{"smiles": "Cc1noc(-c2ccc(CNCCc3ccccn3)cc2)c1NC(=O)OC(C)c1ccccc1Cl", "note": "(stereo not shown) [Compound 90, 1-(2-Chlorophenyl)ethyl N-(3-methyl-5-[4-[([2-(2-pyridyl)ethyl]amino)methyl]phenyl]-4-isoxazolyl)carbamate]", "IC50": 10}
{"smiles": "Cc1noc(-c2ccc(CNCc3ccco3)cc2)c1NC(=O)OC(C)c1ccccc1Cl", "note": "(stereo not shown) [Compound 93, 1-(2-Chlorophenyl)ethyl N-[5-(4-[[(2-furylmethyl)amino]methyl]phenyl)-3-methyl-4-isoxazolyl]carbamate]", "IC50": "3 to 10"}
{"smiles": "Cc1ccccc1CCOC(=O)Nc1c(-c2ccccc2)noc1C", "note": "[Compound 95, 2-Methylphenethyl N-(5-methyl-3-phenyl-4-isoxazolyl)carbamate]", "IC50": "30 to 100"}
{"smiles": "Cc1onc(-c2ccccc2)c1NC(=O)OCCc1ccccc1", "note": "[Compound 96, Phenethyl N-(5-methyl-3-phenyl-4-isoxazolyl)carbamate]", "IC50": "30 to 100"}
{"smiles": "Cc1onc(-c2ccccc2)c1NC(=O)OC1CCc2ccccc21", "note": "(stereo not shown) [Compound 97, 2,3-Dihydro-1H-1-indenyl N-(5-methyl-3-phenyl-4-isoxazolyl)carbamate]", "IC50": "30 to 100"}
{"smiles": "Cc1onc(-c2ccccc2)c1NC(=O)OC1CCc2ccccc2C1", "note": "(stereo not shown) [Compound 98, 1,2,3,4-Tetrahydro-2-naphthalenyl N-(5-methyl-3-phenyl-4-isoxazolyl)carbamate]", "IC50": "30 to 100"}
{"smiles": "CCCCCOC(=O)Nc1c(-c2ccccc2)noc1C", "note": "[Compound 99, Pentyl N-(5-methyl-3-phenyl-4-isoxazolyl)carbamate]", "IC50": "30 to 100"}
{"smiles": "Cc1onc(-c2ccccc2)c1NC(=O)OCCC(C)C", "note": "[Compound 100, Isopentyl N-(5-methyl-3-phenyl-4-isoxazolyl)carbamate]", "IC50": "30 to 100"}
{"smiles": "CCCCC(C)OC(=O)Nc1c(-c2ccccc2)noc1C", "note": "(stereo not shown) [Compound 101, 1-Methylpentyl N-(5-methyl-3-phenyl-4-isoxazolyl)carbamate]", "IC50": "30 to 100"}
{"smiles": "C=CCCCOC(=O)Nc1c(-c2ccccc2)noc1C", "note": "[Compound 102, 4-Pentenyl N-(5-methyl-3-phenyl-4-isoxazolyl)carbamate]", "IC50": "30 to 100"}
{"smiles": "Cc1noc(-c2cccc(CSCCO)c2)c1NC(=O)OC(C)c1ccccc1Cl", "note": "(stereo not shown) [Compound 131, 1-(2-Chlorophenyl)ethyl N-[5-(3-{[(2-hydroxyethyl)sulfanyl]methyl}phenyl)-3-methyl-4-isoxazolyl]carbamate]", "IC50": 3}
